Holding throughout (assay type): cell-based
In assay [1] the test system is Pseudomonas aeruginosa ATCC 9027, Candida albicans ATCC 10231, Aspergillus niger ATCC 16404. The assay is described as follows: Preservation loading test in styrene butadiene emulsions. To be noted: sole active component, neutral conditions, typical polymer emulsion; bacteria, yeasts and moulds. Here is the method: Styrene Butadiene Emulsions were inoculated with 1×10^6 of the test culture, stored for 7 days at 25° C. and then a semi-quantitative determination of colony forming units was carried out. This loading test was carried out with a representative bacteria (Pseudomonas aeruginosa ATCC 9027), a representative yeast (Candida albicans ATCC 10231) and a representative mould (Aspergillus niger ATCC 16404) over consecutive weeks until the product has been subjected to (at least) three separate loadings of each culture type. The concentration of preserving agent at which no recovery of the test organisms was observed is the end point of the test and adequacy of preservation is assumed.

Assay [2] has as its system Proteus mirabilis (PRM) ATCC 14153. The assay can be described thus: MIC culture tube dilution test. To be noted: pH 7.2±0.2, 72 hour incubation at 36° C. Here is the method:
(§1) Microbiocides and microbiocidal properties were determined experimentally. Very well suited test methods are described in detail in the German Society for Hygiene and Microbiology (GGHM) for the examination of disinfectants. In order to determine the MIC, culture tube dilution tests were carried out according to the “regulations for the examination and evaluation of chemical disinfection procedures (Edition 1.1.81, procedures slightly modified)” using a […]-soya bean meal peptide medium. The dilution was carried out with water of standardised hardness without further agents such as surfactants. The adjustment of the pH values to 7.2±0.2 was carried out with 0.1 mol/NaOH or 0.1 mol/HCl. The gradation of test concentrations was made according to the concentration steps proposed by the GGHM. The evaluation was carried out after a 72 hour incubation at 36° C. [table] One part polyvinylamine, consisting of 95 wt % vinyl units and 5 wt % vinylformamide units with a K-value of 90 were mixed with 4.2 parts cyclohexyldiazeniumdioxy potassium. […] The effectiveness was determined according to the abovementioned methods. MIC stated here gives the minimal effective concentration, in which a.i. (active ingredient) means the active component.

Assay [3] has as its system Escherichia coli (EC) ATCC 11229. The assay can be described thus: MIC culture tube dilution test. To be noted: pH 7.2±0.2, 72 hour incubation at 36° C. Here is the method:
as §1

The test system of assay [4] is Pseudomonas aeruginosa (PSA) ATCC 15442. The assay is described as follows: MIC culture tube dilution test. Conditions: pH 7.2±0.2, 72 hour incubation at 36° C. Here is the method:
as §1

The test system of assay [5] is Candida albicans (CA) ATCC 10231. The assay can be described thus: MIC culture tube dilution test. Conditions: pH 7.2±0.2, 72 hour incubation at 36° C. Here is the method: as §1
Assay [6] concerns Staphylococcus aureus (STA) ATCC 6538. The assay is described as follows: MIC culture tube dilution test. Conditions: pH 7.2±0.2, 72 hour incubation at 36° C. Here is the method:
as §1

For assay [7], the system named is Aspergillus niger (ASN) ATCC 16404. The assay can be described thus: MIC culture tube dilution test. To be noted: pH 7.2±0.2, 72 hour incubation at 36° C. Here is the method: as §1

For `O=NN(O)C1CCCCC1.[K]` [KHDO, potassium salt of N′-hydroxy-N-cyclohexyl-diazenium oxide], the “Killing of spoilage microorganisms (in words)” value in assay [1] was “able not only to inhibit but actively kill a representative range of spoilage microorganisms”. The “MIC Cyclohexyldiazeniumdioxy potassium [ppm a.i.] B” value in assay [2] amounted to 750 ppm a.i; in assay [3] it was 350 ppm a.i; in assay [4] it was 3000 ppm a.i; in assay [5], 350 ppm a.i; in assay [6], 750 ppm a.i; in assay [7], 175 ppm a.i.
